The record followed here is patent US20230255943A1, “MMP-9 AND MMP-12 INHIBITION FOR TREATING SPINAL CORD INJURY OR RELATED INJURY TO NEUROLOGICAL TISSUE” (The University of Birmingham, priority 2020, published 2023).

Assay [1] concerns IL-1β, TNF-α and IL-6. Nature of the assay: qRT-PCR of proinflammatory pain markers after DC injury in mice. The class given is in vivo, mouse. The following applies: for injury-induced rise of proinflammatory pain markers IL-1β, TNF-α and IL-6: 3d after DC injury. The procedure:
For oral delivery of AZD1236, n=6 adult male C57BL6 mice/group (Charles River, Margate, UK) were randomly allocated to either: (1), Sham (control; partial laminectomy but no DC crush injury); (2), DC crush injury+vehicle (partial laminectomy followed by DC crush injury and injection of vehicle); (3), DC crush injury+100 mg/kg AZD1236; (4), DC crush injury+200 mg/kg AZD1236; and (5), DC crush injury+300 mg/kg AZD1236. For intrathecal (it) delivery of AZD1236, adult male C57BL6 mice (25-30 g) (Charles River, Margate, UK) were randomly allocated to either: (1), Sham (control; partial laminectomy but no DC crush injury); (2), DC crush injury+vehicle (partial laminectomy followed by DC crush injury and injection of vehicle); (3), DC crush injury+2.5 mg/kg AZD1236; (4), DC crush injury+5 mg/kg AZD1236; and (5), DC crush injury+10 mg/kg AZD1236. For intrathecal delivery an indwelling atlanto-occipital intrathecal catheter was inserted into the intrathecal space, as described previously (F. A. Oladosu, B. P. Ciszek, S. C. O'Buckley, A. G. Nackley, Novel intrathecal and subcutaneous catheter delivery systems in the mouse. J Neurosci Methods 264, 119-128 (2016)). Briefly, with mice in the sternal recumbency a small incision was made at the nape of the neck followed by detachment of the muscles on either side of the external occipital crest to expose the A-O membrane. The membrane was incised and a 6 cm Alzet mouse intrathecal catheter (Alzet, Cupertino, Calif., USA) and polyurethane segments were gently guided 2.5 cm into the intrathecal space. […]
DC crush injury was administered bilaterally at the T8 vertebral level as described previously (S. Surey, M. Berry, A. Logan, R. Bicknell, Z. Ahmed, Differential cavitation, angiogenesis and wound-healing responses in injured mouse and rat spinal cords. Neuroscience 275, 62-80 (2014); M. L. Read, S. Mir, R. Spice, R. J. Seabright, E. L. Suggate, Z. Ahmed, M. Berry, A. Logan, Profiling RNA interference (RNAi)-mediated toxicity in neural cultures for effective short interfering RNA design. J Gene Med 11, 523-534 (2009)). […]
For orientation: Quantitative PCR measures a nucleic acid by following its amplification.

Assay [2] deals with mice with DC crush injury. Nature of the assay: NF200+ spared fibres above and below the lesion. As to conditions: oral. The assay is classed as in vivo, mouse.

Molecules are shown by their SMILES.

Regarding `C[C@]1(CS(=O)(=O)N2CC=C(C#Cc3cnc(C4CC4)nc3)CC2)NC(=O)NC1=O` [AZD1236], the “injury-induced rise of proinflammatory pain markers IL-1β, TNF-α and IL-6” value in assay [1] (intrathecal, 5 mg/kg) is reported as “reduced them to sham-treated levels”; in assay [1] (oral, 200 mg/kg) it was “reduced them to sham-treated levels”. In addition, the “proinflammatory cytokines, 24-h delayed treatment” value in assay [1] (optimal doses, 24 h delay vs immediate) is on record as “equally as effective as immediate delivery”. Moreover, in assay [2], the “NF200+ spared fibres above (T9) and below (T7) the lesion site” value is given as “significantly preserved axon fibres”.
